Assay results as given in patent US9403841B2, “Phragamalin limonoids for the treatment of sexual dysfunction” (DICOTYLEDON AB, priority 2012, dated 2016).

Experiments:
male mice [1] = conditions: see WO 2008/145996; cited from earlier work
male mice [2] = assay: Sexual behavior test: number of mounts of male mice on sexually receptive female mice during one hour; type: in vivo
Source text: A “sexually enhancing effect” is defined herein as the effect being observable as an at least 50% increase, more preferably at least 75% increase, in the number of mounts of sexually naive male mice onto sexually receptive female mice (both preferably being of 8 to 10 weeks of age), after a compound has been administered (orally or sub-cutaneously) to the male mice, the male mice are thereafter, each one separately, being introduced to a sexually receptive female mouse; the observed number of mounts being compared with the number of mounts for control male mice (i.e. control mice being male mice of the same age and strain as the treated ones, but which were not administered the compound but otherwise handled in the same way as the treated mice). The observation period shall be 1 h. It is further required that the number of male mice in each one of the treated and non-treated groups amount to at least three, more preferably to at least four, even more preferably to at least five, and most preferably to at least six in each group for the test to be valid; the average number of mounts for the non treated (average_mount_control) and treated (average_mount_treated) during the 1 h observation period are then calculated and the percent increase (Effect) is then being computed as:
Mice of 9 weeks age weighing 30±2 g were used throughout the study. They were all sexually unskilled. At 4 weeks of age they had been separated from their parents and males and females had been placed in separated cages. The mice were fed with pellets enriched with proteins and lipids.
Prior to the tests, male and female mice received specific treatments, as follows: […]
At 3.00 pm, a female mouse was introduced into each cage hosting a male mouse. The number of mounts of the male mouse, defined as a tentative of lateral or dorsal mounting on the female mouse with or without penis intromission, was then counted during a one-hour observation period and used as a simple measure of sexual behavior activity.

Compound: COC(=O)CC1C2(C)CC34OC5(C)OC67C(CC(=O)OC6C3(OC(=O)C(C)C)C2OC(=O)C(C)C)C(C)(C(=O)c2ccoc2)CCC7(O5)C14C (stereo not shown) [Compound R306]
- potency to induce a sexual enhancing effect (comparison) (male mice [1]): more potent than R310

Compound: COC(=O)CC1C2(C)CC34OC5(C)OC67C(CC(=O)OC6C3(O)C2OC(C)=O)C(C)(C(OC(=O)C(F)(F)F)c2ccoc2)CCC7(O5)C14C (stereo not shown) [GL-1203]
- dose at which a clear and significant increase in the mounting frequency was seen (only at this dose) (male mice [2]; subcutaneous in olive oil for three consecutive days, doses tested 0.04, 0.4, 4 mg/kg): 4 mg/kg

Compound: COC(=O)CC1C2(C)CC34OC5(C)OC67C(CC(=O)OC6C3(O)C2OC(=O)C(C)C)C(C)(C(=O)c2ccoc2)CCC7(O5)C14C (stereo not shown) [SAE5]
- dose at which clear and significant increases in number of mounts were seen already (male mice [2]; oral in olive oil for three consecutive days, doses tested 0.004-4 mg/kg): 0.04 mg/kg
- maximum number of mounts over the one hour observation period (average) (male mice [2]; oral, 4 mg/kg for three consecutive days, D-4): 37 mounts
